According to patent US20050171038A1, “Therapeutic combinations” (Agouron Pharmaceuticals, Inc., priority 2004, published 2005):

How the values were obtained:
CEM-SS cells = assay: Cytotoxicity of the combinations in the XTT dye reduction assay (mock infected CEM-SS cells)
Method: CEM-SS cells were added at 2×10^4 cells per well into 96-well plates containing 1.5-fold or 2.0-fold dilutions of test compounds, and were subsequently infected with HIV-1 RF at a multiplicity of infection of 0.470 or mock infected with medium only. Six days after infection, 50 μl of XTT (1 mg/ml XTT tetrazolium, […] phenazine methosulfate) were added to the wells and the plate was reincubated for four hours. Viability, as determined by the amount of XTT formazan produced, was quantified spectrophotometrically by absorbance at 450 nm. Optical density values were exported to a MacSynergy™ II (3, University of Michigan, Ann Arbor, Mich.) spreadsheet for subsequent analysis.

HIV-1 RF = assay: XTT dye reduction combination assay: protection of CEM-SS cells against HIV-1 RF infection, MacSynergy II analysis; format: cell-based; details: 95% confidence interval
[1] = in combination with 4,4-difluoro-1-{(2S,3S)-2-hydroxy-3-[(3-hydroxy-2-methylbenzoyl)amino]-4-phenylbutanoyl}-3,3-dimethyl-N-(2,2,2-trifluoroethyl)-L-prolinamide
[2] = in combination with 4,4-difluoro-1-{(2S,3S)-2-hydroxy-3-[(3-hydroxy-2-methylbenzoyl)amino]-4-phenylbutanoyl}-3,3-dimethyl-N-(2,2,2-trifluoroethyl)-L-prolinamide, six days after infection of CEM-SS cells with HIV-1 RF, triplicate plates
[3] = in combination with N-ethyl-4,4-difluoro-1-{(2S,3S)-2-hydroxy-3-[(3-hydroxy-2,5-dimethylbenzoyl)amino]-4-phenylbutanoyl}-3,3-dimethyl-L-prolinamide
[4] = in combination with (4R)-N-allyl-3-{(2S,3S)-2-hydroxy-3-[(3-hydroxy-2-methylbenzoyl)amino]-4-phenylbutanoyl}-5,5-dimethyl-1,3-thiazolidine-4-carboxamide, mean of two or three independent experiments
[5] = in combination with N-ethyl-4,4-difluoro-1-{(2S,3S)-2-hydroxy-3-[(3-hydroxy-2,5-dimethylbenzoyl)amino]-4-phenylbutanoyl}-3,3-dimethyl-L-prolinamide, six days after infection of CEM-SS cells with HIV-1 RF, triplicate plates

SMILES | Cytotoxicity (CEM-SS cells; [1]) | Antagonism (volume) (HIV-1 RF; [2]) [μM^2%] | Synergy (volume) (HIV-1 RF; [2]) [μM^2%] | Cytotoxicity (CEM-SS cells; [3]) | Antagonism (volume) (HIV-1 RF; [4]) [μM^2%] | Synergy (volume) (HIV-1 RF; [4]) [μM^2%] | Antagonism (volume) (HIV-1 RF; [5]) [μM^2%] | Synergy (volume) (HIV-1 RF; [5]) [μM^2%]
Cc1cccc(C)c1OCC(=O)N[C@@H](Cc1ccccc1)[C@@H](O)C[C@H](Cc1ccccc1)NC(=O)[C@H](C(C)C)N1CCCNC1=O (relative stereo) [Lopinavir, [1S-[1R*,(R*),3R*,4R*]]—N-[4-[[(2,6-dimethyl-phenoxy)acetyl]amino]-3-hydroxy-5-phenyl-1-(phenylmethyl)pentyl]tetrahydro-alpha-(1-methylethyl)-2-oxo-1(2H)-pyrimidineacetamide] | none | 0 | 261 |  |  |  |  | 
Cc1c(O)cccc1C(=O)N[C@@H](CSc1ccccc1)[C@H](O)CN1C[C@H]2CCCC[C@H]2C[C@H]1C(=O)NC(C)(C)C (relative stereo) [Nelfinavir, [3S-[2(2S*, 3S*),3-alpha,4abeta,8abeta]]-N-(1,1-dimethylethyl)decahydro-2-[2-hydroxy-3-[(3-hydroxy-2-methylbenzoyl)amino]-4-(phenylthio)butyl]-3-isoquinolinecarboxamide mono-methanesulfonate] | none | −0.28 | 653 | none | −13 | 197 | 0 | 229
CC(C)c1nc(CN(C)C(=O)N[C@H](C(=O)N[C@@H](Cc2ccccc2)C[C@H](O)[C@H](Cc2ccccc2)NC(=O)OCc2cncs2)C(C)C)cs1 (relative stereo) [Ritonavir, 10-hydroxy-2-methyl-5-(1-methylethyl)-1-[2-(1-methylethyl)-4-thiazolyl]-3,6-dioxo-8,11-bis(phenylmethyl)-2,4,7,12-tetraazatridecan-13-oic acid, 5-thiazolylmethyl ester, [5S-(5R*,8R*,10R*,11R*)]] |  |  |  |  | −0.77 | 407 |  | 
O=C1Nc2ccc(Cl)cc2[C@@](C#CC2CC2)(C(F)(F)F)O1 [Efavirenz, (S)-6-chloro-4-(cyclopropylethynyl)-1,4-dihydro-4-(trifluoromethyl)-2H-3,1-benzoxazin-2-one] |  |  |  | none | −1.1 | 130 | 0 | 78
Cc1ccnc2c1NC(=O)c1cccnc1N2C1CC1 [Nevirapine, 11-cyclopropyl-5,11-dihydro-4-methyl-6H-dipyrido[3,2-b:2′,3′-e][1,4]diazepin-6-one] | none | 0 | 270 | insignificant | 0 | 203 | −2.4 | 153
CC(C)OC(=O)OCOP(=O)(CO[C@H](C)Cn1cnc2c(N)ncnc21)OCOC(=O)OC(C)C.O=C(O)/C=C/C(=O)O [Tenofovir, 9-[(R)-2-[[bis[[(isopropoxycarbonyl)oxy]methoxy]phosphinyl]methoxy]propyl]adenine fumarate (1:1)] | none | −6.0 | 106 | insignificant | 0 | 125 | 0 | 14
Cc1cn([C@H]2C[C@H](N=[N+]=[N-])[C@@H](CO)O2)c(=O)[nH]c1=O [Zidovudine, 3′-azido-3′-deoxythymidine] |  | 0 | 107 |  | −0.88 | 180 |  | 
